From the SangsterLogP compilation

SMILES	logP
CCCCCCCCCCCCCCCCCCN(C)N=Nc1ccc(C(=O)O)cc1	7.6
CN(C)/N=N/c1ccc(C(=O)O)cc1	-0.29
CN(C)/N=N/c1ccc(C(N)=O)cc1	1.17
CC(C)N(C)N=Nc1ccc(C(=O)O)cc1	0.42
CCCCCCCCCCCCN(C)N=Nc1ccc(C(N)=O)cc1	6.58
CN(O)N=Nc1ccc(C(N)=O)cc1	-0.22
CN(Cc1ccccc1)N=Nc1ccc(C(=O)O)cc1	0.94
CN(CCO)/N=N/c1ccc(C(N)=O)cc1	0.26
CCCCCCCCN(C)N=Nc1ccc(C(=O)O)cc1	2.96
CCN(C)N=Nc1ccc(C(=O)O)cc1	0.03
CCCCCCN(C)N=Nc1ccc(C(N)=O)cc1	3.59
CCCCCCCN(C)N=Nc1ccc(C(=O)O)cc1	2.37
C#CCN(C)N=Nc1ccc(C(=O)O)cc1	-0.13
CCCCCCCN(C)/N=N/c1ccc(C(N)=O)cc1	4.15
C=CCN(C)N=Nc1ccc(C(=O)O)cc1	0.38
CCCCCCCCCCCCN(C)N=Nc1ccc(C(=O)O)cc1	4.77
